Experimental data from ChEMBL document CHEMBL1201862, “PubChem BioAssay data set” (2004).
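Cells were grown in 96-well plates and exposed to each compound for 48 hours at five concentrations; endpoints were interpolated linearly between bracketing concentrations, or set to the highest concentration if not reached. Here, GI50 denotes the concentration required for 50% inhibition of growth.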 Activity calls are given as the source filed them. Cut-off read from the data, not from the text of the source: active = GI50 up to about 1.1 µM and inactive = higher.

Columns and labels:
Assay in all cases: growth of human tumour cells (NCI), 48 h
[1] = test system: DLD-1
[2] = test system: M19-MEL
[3] = test system: DMS-273
[4] = test system: HOP-18
[5] = test system: RXF 631
[6] = test system: KM-20L2
[7] = test system: DMS-114
[8] = test system: SNB-78
[9] = test system: XF498

COC(=O)C(=O)C(C(=O)C(=O)Nc1cccc(C(C)=O)c1)c1nc2ccccc2nc1O (configuration not stated)
GI50 [1]: > 100 µM (inactive)
GI50 [2]: > 100 µM (inactive)
GI50 [3]: > 100 µM (inactive)
GI50 [4]: > 100 µM (inactive)
GI50 [5]: > 100 µM (inactive)
GI50 [6]: > 100 µM (inactive)
GI50 [7]: > 100 µM (inactive)

CC(=O)NC1=C(C)C(=O)c2c(nc3n2CCC3OC(=O)CCl)C1=O (configuration not stated)
GI50 [1]: 12.9 µM (inactive)
GI50 [8]: 2.96 µM (inactive)
GI50 [2]: 12.5 µM (inactive)
GI50 [3]: 17.2 µM (inactive)

Cc1c(C(=O)CC(=O)C(=O)Nc2cc(Cl)ccc2Cl)[n+]([O-])c2ccccc2[n+]1[O-]
GI50 [8]: 50.1 µM (inactive)
GI50 [9]: 51.3 µM (inactive)
GI50 [2]: 25 µM (inactive)
GI50 [3]: 26.1 µM (inactive)
GI50 [4]: 34.1 µM (inactive)
GI50 [6]: 36.1 µM (inactive)
GI50 [7]: 25.9 µM (inactive)

CC(=O)NNc1nc(C)c(C(/C=C/c2ccc(Cl)cc2)=N\N=C(N)N)s1
GI50 [1]: > 100 µM (inactive)
GI50 [8]: > 100 µM (inactive)
GI50 [9]: > 100 µM (inactive)
GI50 [2]: > 100 µM (inactive)
GI50 [3]: > 100 µM (inactive)
GI50 [5]: > 100 µM (inactive)
GI50 [6]: > 100 µM (inactive)

O=C1CSc2cc([N+](=O)[O-])ccc2N1
GI50 [1]: > 100 µM (inactive)
GI50 [8]: > 100 µM (inactive)
GI50 [9]: > 100 µM (inactive)
GI50 [2]: > 100 µM (inactive)
GI50 [3]: > 100 µM (inactive)
GI50 [4]: > 100 µM (inactive)
GI50 [5]: > 100 µM (inactive)
GI50 [6]: > 100 µM (inactive)
GI50 [7]: > 100 µM (inactive)

COC(=O)C12OCC34C(CC5C(C)C6=CC(=O)OC6=CC5(C)C3C(O)C1O)OC(=O)C(O)C24 (configuration not stated)
GI50 [8]: 0.474 µM (active)
GI50 [2]: 0.192 µM (active)
GI50 [3]: 0.178 µM (active)
GI50 [4]: 0.676 µM (active)
GI50 [6]: 0.957 µM (active)
GI50 [7]: 0.859 µM (active)

O=S(=O)(/C=C/c1ccc(Cl)cc1Cl)Cc1ccccc1CS(=O)(=O)/C=C/c1ccc(Cl)cc1Cl
GI50 [1]: 29 µM (inactive)
GI50 [8]: > 100 µM (inactive)
GI50 [9]: 32.9 µM (inactive)
GI50 [2]: 20.9 µM (inactive)
GI50 [3]: 10.2 µM (inactive)
GI50 [6]: > 100 µM (inactive)
GI50 [7]: 31.6 µM (inactive)

N#CC(C(=O)CCC(=O)Nc1ccc(Cl)cc1)c1ccc(Cl)cc1 (configuration not stated)
GI50 [1]: 71.3 µM (inactive)
GI50 [8]: > 100 µM (inactive)
GI50 [9]: > 100 µM (inactive)
GI50 [2]: > 100 µM (inactive)
GI50 [3]: > 100 µM (inactive)
GI50 [4]: 97.3 µM (inactive)
GI50 [5]: > 100 µM (inactive)
GI50 [6]: 11.5 µM (inactive)
GI50 [7]: > 100 µM (inactive)

Cc1ccc(S(=O)(=O)N/N=C/c2oc(-c3ccccc3Cl)c(-c3ccccc3Cl)c2[N+](=O)[O-])cc1
GI50 [1]: 17.1 µM (inactive)
GI50 [2]: 23.3 µM (inactive)
GI50 [5]: 19.3 µM (inactive)
GI50 [6]: 15.4 µM (inactive)
GI50 [7]: 17.3 µM (inactive)

Nc1c(S(=O)(=O)c2ccccc2)c2nc3ccccc3nc2n2c1nc1ccccc12
GI50 [1]: > 86.1 µM (inactive)
GI50 [8]: 26.4 µM (inactive)
GI50 [9]: 11.8 µM (inactive)
GI50 [2]: 29.8 µM (inactive)
GI50 [3]: 7.67 µM (inactive)
GI50 [5]: 16.9 µM (inactive)
GI50 [6]: > 100 µM (inactive)
GI50 [7]: > 69.3 µM (inactive)

CCC(=O)c1c(NOC2OCC(OC(C)=O)C(OC(C)=O)C2OC(C)=O)nc(OC)n(C)c1=O (configuration not stated)
GI50 [1]: > 100 µM (inactive)
GI50 [8]: > 100 µM (inactive)
GI50 [9]: > 100 µM (inactive)
GI50 [2]: > 100 µM (inactive)
GI50 [3]: > 100 µM (inactive)
GI50 [4]: < 0.01 µM (active)
GI50 [6]: > 100 µM (inactive)
GI50 [7]: > 100 µM (inactive)

CCOC(=O)C12CCCC1(O)N(NC(=O)c1cccc(Cl)c1)C(C)=C2C(=O)OC (configuration not stated)
GI50 [1]: > 100 µM (inactive)
GI50 [9]: > 100 µM (inactive)
GI50 [2]: > 100 µM (inactive)
GI50 [3]: 56.2 µM (inactive)
GI50 [5]: 55.7 µM (inactive)
GI50 [6]: > 100 µM (inactive)
GI50 [7]: > 100 µM (inactive)

C[C@@H](NS(=O)(=O)c1ccc(NC(=O)c2ccccc2)cc1)C(=O)O
GI50 [1]: > 100 µM (inactive)
GI50 [9]: > 100 µM (inactive)
GI50 [2]: > 100 µM (inactive)
GI50 [3]: > 100 µM (inactive)
GI50 [4]: > 100 µM (inactive)
GI50 [6]: > 100 µM (inactive)

CC1CC(C)CC(C)C(O)/C(C#N)=C/C=C/CC(C2CCCC2C(=O)O)OC(=O)CC(O)C(C)C1 (configuration not stated)
GI50 [1]: < 0.0122 µM (active)
GI50 [8]: 0.0223 µM (active)
GI50 [9]: < 0.0164 µM (active)
GI50 [2]: 0.0202 µM (active)
GI50 [3]: 0.0164 µM (active)
GI50 [4]: 0.0189 µM (active)
GI50 [5]: 0.0317 µM (active)
GI50 [6]: 0.0362 µM (active)
GI50 [7]: < 0.01 µM (active)

CN(C(=O)C12C3C4C1C1C2C3C41C(=O)C(C)(C)C)C(C)(C)C (configuration not stated)
GI50 [1]: > 100 µM (inactive)
GI50 [8]: > 100 µM (inactive)
GI50 [9]: > 100 µM (inactive)
GI50 [2]: > 100 µM (inactive)
GI50 [3]: > 100 µM (inactive)
GI50 [5]: > 100 µM (inactive)
GI50 [6]: > 100 µM (inactive)
GI50 [7]: > 100 µM (inactive)
